# Reference: ChEMBL document CHEMBL4190279 (Eur J Med Chem, 2017)
# Activity calls are given as the source filed them. The calls are words filed in the database; no cut-off is given here.
# Key:
# [1] = GPx-like activity of the compound assessed as H2O2 reduction by measuring oxidation of PhSH to (PhS)2 at 50 uM measured for 180 secs by spectrophotometric analysis relative to control; type: functional
# A549 [2] = assay: Cell cycle arrest in human A549 cells assessed as accumulation at G1-phase at 0.2 uM after 24 hrs by propidium iodide staining based flow cytometry; type: functional
# T47D [3] = assay: Cell cycle arrest in human T47D cells assessed as accumulation at subG1-phase at 1 uM after 24 hrs by propidium iodide staining based flow cytometry; type: functional
# WiDr [4] = assay: cells; conditions: Homo sapiens, 48 h
# Description: Antiproliferative activity against human WiDr cells after 48 hrs by SRB assay
# T47D [5] = assay: Potency index, ratio of cisplatin GI50 to compound GI50 for human T47D cells; type: functional
# HBL-100 [6] = assay: Potency index, ratio of cisplatin GI50 to compound GI50 for human HBL100 cells; type: functional
# HBL-100 [7] = assay: Cell cycle arrest in human HBL100 cells assessed as accumulation at subG1-phase at 1 uM after 24 hrs by propidium iodide staining based flow cytometry; type: functional
# HeLa [8] = assay: Cell cycle arrest in human HeLa cells assessed as accumulation at G1-phase at 0.2 uM after 24 hrs by propidium iodide staining based flow cytometry; type: functional
# SW1573 [9] = assay: Potency index, ratio of cisplatin GI50 to compound GI50 for human SW1573 cells; type: functional
# SW1573 [10] = assay: cells; conditions: Homo sapiens, SW1573, 48 h
# Description: Antiproliferative activity against human SW1573 cells after 48 hrs by SRB assay
# HBL-100 [11] = assay: Potency index, ratio of 5-FU GI50 to compound GI50 for human HBL100 cells; type: functional
# SW1573 [12] = assay: Potency index, ratio of 5-FU GI50 to compound GI50 for human SW1573 cells; type: functional
# WiDr [13] = assay: Potency index, ratio of 5-FU GI50 to compound GI50 for human WiDr cells; type: functional
# Cholinesterase [14] = target: T1, Cholinesterase (Equus caballus, UniProt P81908); assay: Mixed-type inhibition of equine serum BuChE assessed as enzyme-inhibitor complex using p-nitrophenyl butyrate as substrate by Lineweaver-Burk plot analysis
# T1 sequence (P81908 whole entry): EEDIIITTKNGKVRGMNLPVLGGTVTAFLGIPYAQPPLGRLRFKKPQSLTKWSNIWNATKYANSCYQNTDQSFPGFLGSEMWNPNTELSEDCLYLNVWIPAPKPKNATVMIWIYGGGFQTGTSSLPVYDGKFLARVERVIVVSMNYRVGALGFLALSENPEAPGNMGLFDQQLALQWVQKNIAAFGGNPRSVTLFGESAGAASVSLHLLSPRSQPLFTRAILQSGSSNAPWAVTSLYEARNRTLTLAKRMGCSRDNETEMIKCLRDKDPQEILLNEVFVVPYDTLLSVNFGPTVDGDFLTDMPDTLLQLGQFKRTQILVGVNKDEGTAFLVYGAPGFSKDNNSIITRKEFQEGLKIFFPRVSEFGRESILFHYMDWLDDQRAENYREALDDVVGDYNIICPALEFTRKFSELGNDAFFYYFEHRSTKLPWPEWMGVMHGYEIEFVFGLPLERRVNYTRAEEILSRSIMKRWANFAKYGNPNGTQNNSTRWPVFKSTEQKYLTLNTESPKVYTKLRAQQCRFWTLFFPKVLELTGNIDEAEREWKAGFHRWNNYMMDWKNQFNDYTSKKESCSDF
# SW1573 [15] = assay: Cell cycle arrest in human SW1573 cells assessed as accumulation at G1-phase at 0.2 uM after 24 hrs by propidium iodide staining based flow cytometry; type: functional
# WiDr [16] = assay: Potency index, ratio of cisplatin GI50 to compound GI50 for human WiDr cells; type: functional
# WiDr [17] = assay: Cell cycle arrest in human WiDr cells assessed as accumulation at subG1-phase at 1 uM after 24 hrs by propidium iodide staining based flow cytometry; type: functional
# [18] = GPx-like activity of the compound assessed as velocity for H2O2 reduction by measuring oxidation of PhSH to (PhS)2 at 50 uM measured for 180 secs by spectrophotometric analysis; type: functional
# Acetylcholinesterase [19] = target: T2, Acetylcholinesterase (Electrophorus electricus, UniProt O42275); assay: Non-competitive inhibition of electric eel AChE assessed as enzyme-inhibitor complex using p-nitrophenyl acetate as substrate by Lineweaver-Burk plot analysis
# T2 sequence (O42275 whole entry): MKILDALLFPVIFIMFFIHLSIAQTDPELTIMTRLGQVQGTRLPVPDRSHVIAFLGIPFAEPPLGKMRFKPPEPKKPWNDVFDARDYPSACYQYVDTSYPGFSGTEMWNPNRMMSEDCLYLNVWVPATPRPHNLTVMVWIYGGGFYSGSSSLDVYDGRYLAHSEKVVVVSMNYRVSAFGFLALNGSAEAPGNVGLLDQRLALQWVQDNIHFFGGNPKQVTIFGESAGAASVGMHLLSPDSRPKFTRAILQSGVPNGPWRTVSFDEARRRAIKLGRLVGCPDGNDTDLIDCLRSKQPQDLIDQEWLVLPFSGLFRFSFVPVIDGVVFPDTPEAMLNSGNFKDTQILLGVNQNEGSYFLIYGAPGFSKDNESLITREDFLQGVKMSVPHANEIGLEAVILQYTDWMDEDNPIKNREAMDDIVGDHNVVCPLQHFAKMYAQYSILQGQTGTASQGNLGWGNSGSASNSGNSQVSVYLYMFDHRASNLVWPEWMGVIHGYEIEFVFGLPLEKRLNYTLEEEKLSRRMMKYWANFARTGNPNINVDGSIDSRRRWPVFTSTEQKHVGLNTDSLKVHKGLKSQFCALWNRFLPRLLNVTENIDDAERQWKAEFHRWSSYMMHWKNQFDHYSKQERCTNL
# HBL-100 [20] = assay: Cell cycle arrest in human HBL100 cells assessed as accumulation at G1-phase at 0.2 uM after 24 hrs by propidium iodide staining based flow cytometry; type: functional
# [21] = GPx-like activity of the compound assessed as half life for H2O2 reduction by measuring oxidation of PhSH to (PhS)2 at 50 uM measured for 180 secs by spectrophotometric analysis relative to control; type: functional
# HBL-100 [22] = assay: cells; conditions: Homo sapiens, HBL-100, 48 h
# Description: Antiproliferative activity against human HBL100 cells after 48 hrs by SRB assay
# HeLa [23] = assay: Potency index, ratio of cisplatin GI50 to compound GI50 for human HeLa cells; type: functional
# A549 [24] = assay: Cell cycle arrest in human A549 cells assessed as accumulation at subG1-phase at 1 uM after 24 hrs by propidium iodide staining based flow cytometry; type: functional
# HeLa [25] = assay: cells; conditions: Homo sapiens, 48 h
# Description: Antiproliferative activity against human HeLa cells after 48 hrs by SRB assay
# in vitro = conditions: human, hTERT-BJ cells
# Description: Antiproliferative activity against human hTERT-BJ cells after 48 hrs by SRB assay
# HeLa [26] = assay: Cell cycle arrest in human HeLa cells assessed as accumulation at subG1-phase at 1 uM after 24 hrs by propidium iodide staining based flow cytometry; type: functional
# T47D [27] = assay: cells; conditions: Homo sapiens, 48 h
# Description: Antiproliferative activity against human T47D cells after 48 hrs by SRB assay
# SW1573 [28] = assay: Cell cycle arrest in human SW1573 cells assessed as accumulation at subG1-phase at 1 uM after 24 hrs by propidium iodide staining based flow cytometry; type: functional
# Cholinesterase [29] = target: T1, Cholinesterase; assay: Mixed-type inhibition of equine serum BuChE assessed as enzyme-substrate-inhibitor complex using p-nitrophenyl butyrate as substrate by Lineweaver-Burk plot analysis
# [30] = Selectivity index, ratio of Ki for equine serum BuChE assessed as enzyme-substrate-inhibitor complex to Ki for electric eel AChE assessed as enzyme-substrate-inhibitor complex
# A549 [31] = assay: Potency index, ratio of cisplatin GI50 to compound GI50 for human A549 cells; type: functional
# WiDr [32] = assay: Cell cycle arrest in human WiDr cells assessed as accumulation at G1-phase at 0.2 uM after 24 hrs by propidium iodide staining based flow cytometry; type: functional
# T47D [33] = assay: Cell cycle arrest in human T47D cells assessed as accumulation at G1-phase at 0.2 uM after 24 hrs by propidium iodide staining based flow cytometry; type: functional
# Acetylcholinesterase [34] = target: T2, Acetylcholinesterase; assay: Non-competitive inhibition of electric eel AChE assessed as enzyme-substrate-inhibitor complex using p-nitrophenyl acetate as substrate by Lineweaver-Burk plot analysis
# T47D [35] = assay: Potency index, ratio of 5-FU GI50 to compound GI50 for human T47D cells; type: functional
# A549 [36] = assay: cells; conditions: Homo sapiens, A549, 48 h
# Description: Antiproliferative activity against human A549 cells after 48 hrs by SRB assay
# HeLa [37] = assay: Potency index, ratio of 5-FU GI50 to compound GI50 for human HeLa cells; type: functional
smiles,measurement,setting,value
c1ccc2c(NCCCCCC[Se][Se]CCCCCCNc3c4c(nc5ccccc35)CCCC4)c3c(nc2c1)CCCC3,fold change (FC),[1],4.7
same,Activity,A549 [2],Active
same,Activity,T47D [3],>50%
same,GI50,WiDr [4],240 nM
same,RatioGI50,T47D [5],<=162
same,RatioGI50,HBL-100 [6],<=162
same,Activity,HBL-100 [7],>50%
same,Activity,HeLa [8],Active
same,RatioGI50,SW1573 [9],<=162
same,GI50,SW1573 [10],130 nM
same,RatioGI50,HBL-100 [11],<=306
same,RatioGI50,SW1573 [12],<=306
same,RatioGI50,WiDr [13],<=306
same,Ki,Cholinesterase [14],43.3 nM
same,Activity,SW1573 [15],Active
same,RatioGI50,WiDr [16],<=162
same,Activity,WiDr [17],Active
same,Activity,[18],36.5 µM/min
same,Ki,Acetylcholinesterase [19],26.3 nM
same,Activity,HBL-100 [20],Active
same,T1/2,[21],1.14 h
same,GI50,HBL-100 [22],170 nM
same,RatioGI50,HeLa [23],<=162
same,Activity,A549 [24],Active
same,GI50,HeLa [25],160 nM
same,GI50 at 48 h,in vitro,240 nM
same,Activity,HeLa [26],Active
same,GI50,T47D [27],210 nM
same,Activity,SW1573 [28],Active
same,Ki,Cholinesterase [29],73.3 nM
same,Ratio Ki,[30],2.8
same,RatioGI50,A549 [31],<=162
same,Activity,WiDr [32],Active
same,Activity,T47D [33],Active
same,Ki,Acetylcholinesterase [34],26.3 nM
same,RatioGI50,T47D [35],<=306
same,GI50,A549 [36],140 nM
same,RatioGI50,HeLa [37],<=306
